Activity calls are given as the source filed them. The rule behind the calls is not given here.
Legend:
4T1 [1] = assay: Upregulation of p53 level in mouse 4T1 cells at 4 uM incubated for 24 hrs; format: functional, cell-based
[2] = Toxicity in BALB/c mouse assessed as effect on kidney at 0.15 to 1.5 mg/kg measured upto 16 days; format: organism-based; conditions: in vivo, 384 h, dose 0.15-1.5 mg/kg, time < 16 day
4T1 [3] = assay: Antitumor activity against mouse 4T1 cells xenografted in BALB/c mouse model assessed as reduction in hepatosplenomegaly by measuring organ coefficient at 0.15 to 1.5 mg/kg; format: functional, organism-based; conditions: dose 0.15-1.5 mg/kg
4T1 [4] = assay: Inhibition of PDK4 expression in mouse 4T1 cells at 4 uM incubated for 24 hrs by Western blot analysis; format: functional, cell-based
COS-7 [5] = assay: Effect on PHDC expression in African monkey COS7 cells at high concentration measured after 6 hrs; format: functional, cell-based; conditions: Chlorocebus aethiops
4T1 [6] = assay: Induction of mitochondrial respiration in mouse 4T1 cells assessed as increase in basal respiration at 2 to 6 uM incubated for 6 hrs by seahorse XF96 flux analyzer; format: functional, cell-based; conditions: dose 2-6 µM
MOLM-13 = assay: Antiproliferative activity against human MOLM-13 cells assessed as inhibition of cell growth incubated for 24 hrs by MTT assay; format: functional, cell-based; conditions: MOLM-13, 24 h
4T1 [7] = assay: Induction of mitochondrial membrane potential depolarization in mouse 4T1 cells at low dose measured after 12 hrs by JC-1 staining based analysis; format: functional, cell-based
4T1 [8] = assay: Recovery in mitochondrial function in mouse 4T1 cells assessed as increase in OCR/ECAR ratio; format: functional, cell-based; conditions: dose 2-6 µM
NB-4 = assay: Antiproliferative activity against human NB4 cells assessed as inhibition of cell growth incubated for 24 hrs by MTT assay; format: functional, cell-based; conditions: NB-4, 24 h
4T1 [9] = assay: Induction of apoptosis in mouse 4T1 cells assessed as increase in proportion of apoptotic cells incubated for 24 hrs by annexin V-FITC/PI staining based flow cytometry analysis; format: functional, cell-based; conditions: dose 2-3 µM
4T1 [10] = assay: Inhibition of PDK1 expression in mouse 4T1 cells at 4 uM incubated for 24 hrs by Western blot analysis; format: functional, cell-based
COS-7 [11] = assay: Effect on PDHA1 expression in African monkey COS7 cells at 12 uM measured after 24 hrs; format: functional, cell-based; conditions: Chlorocebus aethiops
[12] = target: [Pyruvate dehydrogenase (acetyl-transferring)] kinase isozyme 2, mitochondrial (Mus musculus) (UniProt Q9JK42); assay: Inhibition of PDK2 transcription in mouse 4T1 cells at 4 uM incubated for 24 hrs by qPCR analysis; format: cell-based
[13] = target: [Pyruvate dehydrogenase (acetyl-transferring)] kinase isozyme 1, mitochondrial (Homo sapiens, UniProt Q15118); assay: Inhibition of PDK1 (unknown origin) incubated for 30 mins in presence of ATP by kinase glo luminescent kinase assay
4T1 [14] = assay: Induction of ROS production in mouse 4T1 cells by confocal scanning microscopy based analysis; format: functional, cell-based
4T1 [15] = assay: Downregulation of PHDC at Ser293 residues in mouse 4T1 cells at 4 uM incubated for 24 hrs by Western blot analysis; format: functional, cell-based

Chain of [Pyruvate dehydrogenase (acetyl-transferring)] kinase isozyme 1, mitochondrial (Q15118 whole entry): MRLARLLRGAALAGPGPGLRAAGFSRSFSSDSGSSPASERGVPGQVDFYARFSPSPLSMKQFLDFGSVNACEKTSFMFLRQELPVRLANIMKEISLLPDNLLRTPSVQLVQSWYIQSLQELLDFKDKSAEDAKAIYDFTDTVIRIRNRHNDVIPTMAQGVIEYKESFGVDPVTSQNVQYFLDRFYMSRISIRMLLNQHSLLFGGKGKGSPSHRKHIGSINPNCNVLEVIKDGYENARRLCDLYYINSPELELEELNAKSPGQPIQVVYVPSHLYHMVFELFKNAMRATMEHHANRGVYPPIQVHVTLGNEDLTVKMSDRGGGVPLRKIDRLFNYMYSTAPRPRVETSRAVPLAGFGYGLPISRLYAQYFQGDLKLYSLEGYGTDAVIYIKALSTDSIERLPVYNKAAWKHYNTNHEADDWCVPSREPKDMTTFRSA

Structure (SMILES): O=C(CCCCCNC(=O)C(Cl)Cl)Nc1ccc([As]2SCCCS2)cc1
- Activity (4T1 [1]): Active
- Activity [2]: Non-Toxic
- Activity (4T1 [3]): Active
- inhibition (4T1 [4]): Active
- Activity (COS-7 [5]): inactive
- Activity (4T1 [6]): Active
- IC50 (MOLM-13): 1350 nM
- Activity (4T1 [7]): inactive
- Activity (4T1 [8]): Dose-Dependent Effect
- IC50 (NB-4): 1720 nM
- Activity (4T1 [9]): Dose-Dependent Effect
- inhibition (4T1 [10]): Active
- Activity (COS-7 [11]): inactive
- inhibition [12]: Active
- EC50 [13]: 68 nM
- Activity (4T1 [14]): Active
- Activity (4T1 [15]): Active
